Where two headings read alike, the source gives them in different places.
Experiments:
Test in all cases: MTT cell proliferation assay
Type in all cases: cell-based
MS751 cells = details: Homo sapiens, MS751, MS751 cells, approximately 64-72 hours incubation
Summary of the method: (§1)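 Cytotoxicity was measured by MTT: OD490 of the solubilized formazan after roughly 4 h with MTT reagent, reported as mean percent inhibition relative to the negative control. Test compounds covered eight concentrations between 1 nM and 30 μM, added to 5,000–10,000 cells per well that had attached overnight.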

3T3 cells = details: Mus musculus, NIH3T3, approximately 64-72 hours incubation
Summary of the method: as §1

Z138 cells = details: Homo sapiens, Z-138, Z138 cells, approximately 64-72 hours incubation
Summary of the method: as §1

MDA-MB-231 cells = details: Homo sapiens; MDA-MB-231 cell line; read-out: MTT Assay IC50, MDA-MB-231
Method: The MTT cell proliferation assay was used to study the cytotoxic properties of the compounds. The assay was performed according to the method described by Roche Molecular Biochemicals, with minor modifications. The assay is based on the cleavage of the tetrazolium salt, MTT, in the presence of an electron-coupling reagent. The water-insoluble formazan salt produced must be solubilized in an additional step. Cells grown in a 96-well tissue culture plate were incubated with the MTT solution for approximately 4 hours. After this incubation period, a water-insoluble formazan dye formed. After solubilization, the formazan dye was quantitated using a scanning multi-well spectrophotometer (ELISA reader). […] The cells were seeded at 5,000-10,000 cells in each well of 96-well plate in 100 μL of fresh culture medium and were allowed to attach overnight. The stock solutions of the compounds were diluted in 100 μL cell culture medium to obtain eight concentrations of each test compound, ranging from 1 nM to 30 μM. […] All optical densities were measured at 490 nm using a Vmax Kinetic Microplate Reader (Molecular Devices). In most cases, the assay was performed in duplicate and the results were presented as a mean percent inhibition to the negative control±SE. The following formula was used to calculate the percent of inhibition: Inhibition (%)=(1−(ODo/OD))×100.
The M24 cell line is derived from human melanoma cells. The U2OS cell line is a human osteosarcoma cell line expressing wild type p53 and Rb, but lacking p16. The MM1S cell line is a multiple myeloma cell line; the parent cell line, MM.1, was established from peripheral blood of a multiple myeloma patient who had become resistant to steroid-based therapy. The RPMI8226 cell line is derived from human B lymphocyte cells. NHDF cells are normal human dermal fibroblast cells. The MRC-5 cell line is derived from normal lung tissue of a fetus. The PC3 cell line is a human prostate cancer cell line. The DU-145 cell line is a human prostate cancer cell line. The MDA-MB-231 cell line is a human breast adenocarcinoma cell line. The MDA-MB-468 cell line is a human breast carcinoma cell line. HL-60 cells are human promyelocytic leukemia cells. Hep G2 cells are human hepatocellular carcinoma cells. HEP 3B cells are human hepatocellular carcinoma cells. The DLD-1 cell line is a colorectal adenocarcinoma cell line. The HCT-15 cell line is a human colon carcinoma cell line. The Colo-205 cell line is derived from a human adenocarcinoma of the colon. The LoVo cell line is a human colon adenocarcinoma cell line.

[1] = read-out: MTT Assay IC50 MS-751
[2] = read-out: MTT Assay IC50, MS-751
[3] = read-out: MTT Assay IC50, Z-138

SMILES | IC50 (MS751 cells; [1]) [nM] | IC50 (3T3 cells; read-out: MTT Assay IC50 3T3) [µM] | IC50 (Z138 cells; read-out: MTT Assay IC50 Z-138) [nM] | IC50 (MDA-MB-231 cells) [nM] | IC50 (MS751 cells; [2]) [nM] | IC50 (3T3 cells; read-out: MTT Assay IC50, 3T3) [µM] | IC50 (Z138 cells; [3]) [nM]
CC1(C)COCCN1C(=O)c1ccc(-c2cc(C(F)(F)F)c3oc(CNC(=O)/C=C/c4ccc(N)nc4)cc3c2)cc1 [Compound 517, (E)-3-(6-aminopyridin-3-yl)-N-((5-(4-(3,3-dimethylmorpholine-4-carbonyl)phenyl)-7-(trifluoromethyl)benzofuran-2-yl)methyl)acrylamide] | 100 to 5000 | > 10 | 100 to 5000 | 100 to 5000 |  |  | 
Nc1ccc(/C=C/C(=O)NCc2cc3cc(-c4ccc(C(=O)N5CCOCC5)cn4)cc(C(F)(F)F)c3o2)cn1 [Compound 521, (E)-3-(6-aminopyridin-3-yl)-N-((5-(5-(morpholine-4-carbonyl)pyridin-2-yl)-7-(trifluoromethyl)benzofuran-2-yl)methyl)acrylamide] | < 100 | > 10 | < 100 | 100 to 5000 |  |  | 
Nc1ccc(/C=C/C(=O)NCc2cc3cc(-c4ccc(C(=O)N5CCC(F)(F)CC5)cc4F)cc(-c4ccc(F)cc4F)c3o2)cn1 [Compound 753, (E)-3-(6-aminopyridin-3-yl)-N-((7-(2,4-difluorophenyl)-5-(4-(4,4-difluoropiperidine-1-carbonyl)-2-fluorophenyl)benzofuran-2-yl)methyl)acrylamide] |  |  |  |  | < 100 | 0.1 to 5 | < 100
Nc1ccc(/C=C/C(=O)NCc2cc3cc(-c4ccc(C(=O)N5CCC(F)(F)CC5)cc4)cc(-c4ccc(F)nc4F)c3o2)cn1 [Compound 754, (E)-3-(6-aminopyridin-3-yl)-N-((5-(4-(4,4-difluoropiperidine-1-carbonyl)phenyl)-7-(2,6-difluoropyridin-3-yl)benzofuran-2-yl)methyl)acrylamide] |  |  |  |  | < 100 | 0.1 to 5 | < 100
Nc1ccc(/C=C/C(=O)NCc2cc3cc(-c4ccc(C(=O)N5CCC(F)(F)CC5)cc4F)cc(-c4cccc(F)c4)c3o2)cn1 [Compound 755, (E)-3-(6-aminopyridin-3-yl)-N-((5-(4-(4,4-difluoropiperidine-1-carbonyl)-2-fluorophenyl)-7-(3-fluorophenyl)benzofuran-2-yl)methyl)acrylamide] |  |  |  |  | 100 to 5000 | 0.1 to 5 | < 100
Nc1ccc(/C=C/C(=O)NCc2cc3cc(-c4ccc(C(=O)N5CCC(F)(F)CC5)cc4F)cc(-c4cccc(Cl)c4)c3o2)cn1 [Compound 756, (E)-3-(6-aminopyridin-3-yl)-N-((7-(3-chlorophenyl)-5-(4-(4,4-difluoropiperidine-1-carbonyl)-2-fluorophenyl)benzofuran-2-yl)methyl)acrylamide] |  |  |  |  | < 100 | > 10 | < 100
Nc1ccc(/C=C/C(=O)NCc2cc3cc(-c4ccc(C(=O)N5CCC(F)(F)CC5)cc4F)cc(-c4ccc(F)c(Cl)c4)c3o2)cn1 [Compound 757, (E)-3-(6-aminopyridin-3-yl)-N-((7-(3-chloro-4-fluorophenyl)-5-(4-(4,4-difluoropiperidine-1-carbonyl)-2-fluorophenyl)benzofuran-2-yl)methyl)acrylamide] |  |  |  |  | < 100 | > 10 | < 100
Nc1ccc(/C=C/C(=O)NCc2cc3cc(-c4ccc(C(=S)N5CCC(F)(F)CC5)cc4F)cc(-c4ccc(F)cc4)c3o2)cn1 [Compound 758, (E)-3-(6-aminopyridin-3-yl)-N-((5-(4-(4,4-difluoropiperidine-1-carbonothioyl)-2-fluorophenyl)-7-(4-fluorophenyl)benzofuran-2-yl)methyl)acrylamide] |  |  |  |  | < 100 | > 10 | < 100
Nc1ccc(/C=C/C(=O)NCc2cc3cc(-c4ccc5occc5c4)cc(-c4ccc(F)cc4F)c3o2)cn1 [Compound 759, (E)-3-(6-aminopyridin-3-yl)-N-((7-(2,4-difluorophenyl)-5,5′-bibenzofuran-2-yl)methyl)acrylamide] |  |  |  |  | 100 to 5000 | > 10 | < 100
CC(c1ccc(-c2cc(-c3ccc(F)cc3)c3oc(CNC(=O)/C=C/c4ccc(N)nc4)cc3c2)cc1)N1CCC(F)(F)CC1 (centres unmarked) [Compound 760, (E)-3-(6-aminopyridin-3-yl)-N-((5-(4-(1-(4,4-difluoropiperidin-1-yl)ethyl)phenyl)-7-(4-fluorophenyl)benzofuran-2-yl)methyl)acrylamide] |  |  |  |  | 100 to 5000 | > 10 | 100 to 5000
Nc1ccc(/C=C/C(=O)NCc2cc3c(-c4ccc(C(=O)N5CCC(F)(F)CC5)cn4)cc(C(F)(F)F)cc3o2)cn1 [Compound 761, (E)-3-(6-aminopyridin-3-yl)-N-((4-(5-(4,4-difluoropiperidine-1-carbonyl)pyridin-2-yl)-6-(trifluoromethyl)benzofuran-2-yl)methyl)acrylamide] |  |  |  |  | > 10000 | > 10 | > 10000
Nc1ccc(/C=C/C(=O)NCc2cc3c(C(F)(F)F)cc(-c4ccc(C(=O)N5CCC(F)(F)CC5)cn4)cc3o2)cn1 [Compound 762, (E)-3-(6-aminopyridin-3-yl)-N-((6-(5-(4,4-difluoropiperidine-1-carbonyl)pyridin-2-yl)-4-(trifluoromethyl)benzofuran-2-yl)methyl)acrylamide] |  |  |  |  | 5000 to 10000 | > 10 | 100 to 5000
Nc1ccc(/C=C/C(=O)NCc2cc3cc(-c4ccc(OC5CCC(F)(F)CC5)cc4)cc(-c4ccc(F)cc4)c3o2)cn1 [Compound 763, (E)-3-(6-aminopyridin-3-yl)-N-((5-(4-((4,4-difluorocyclohexyl)oxy)phenyl)-7-(4-fluorophenyl)benzofuran-2-yl)methyl)acrylamide] |  |  |  |  | 100 to 5000 | > 10 | 100 to 5000
Nc1ccc(/C=C/C(=O)NCc2cc3cc(-c4ncc(C(=O)N5CCC(F)(F)CC5)cc4F)cc(-c4ccc(F)cc4)c3o2)cn1 [Compound 764, (E)-3-(6-aminopyridin-3-yl)-N-((5-(5-(4,4-difluoropiperidine-1-carbonyl)-3-fluoropyridin-2-yl)-7-(4-fluorophenyl)benzofuran-2-yl)methyl)acrylamide] |  |  |  |  | < 100 | 0.1 to 5 | < 100
Nc1ccc(/C=C/C(=O)NCc2coc3c(Cl)cc(-c4ccc(C(=O)N5CCC(F)(F)CC5)cn4)cc23)cn1 [Compound 766, (E)-3-(6-aminopyridin-3-yl)-N-((7-chloro-5-(5-(4,4-difluoropiperidine-1-carbonyl)pyridin-2-yl)benzofuran-3-yl)methyl)acrylamide] |  |  |  |  | 100 to 5000 | 5 to 10 | 100 to 5000
Nc1ccc(/C=C/C(=O)NCc2cc3cc(-c4ccc(Oc5ccc(F)nc5)cc4)cc(-c4ccc(F)cc4)c3o2)cn1 [Compound 767, (E)-3-(6-aminopyridin-3-yl)-N-((7-(4-fluorophenyl)-5-(4-((6-fluoropyridin-3-yl)oxy)phenyl)benzofuran-2-yl)methyl)acrylamide] |  |  |  |  | 100 to 5000 | > 10 | < 100
